Test results taken from patent publication US20150087722A1, “TREATMENT FOR BREAST TUMOR CELL METASTASIS” (China Medical University, priority 2012, published 2015).

How the values were obtained:
[1] = tested on: Normal Endothelial Cell (EAhy926 cell strain); assay: MTT cell viability assay; assay type: cell-based, human
Protocol: The cell viability was determined by a method of […] (MTT assay). The test method for assaying cell viability refers to steps provided by Parada-Turska et al.
The breast tumor cells MDA-MB-231 were inoculated in a 24-well plate (2.5×10^5 cells/well), and the next day after cells were adhered to the wall of the plate, the cells were washed with PBS. 1% FBS-DMEM culture medium was then added so as to synchronize cells. The next day compound II having different concentrations were added into the wells, and the cells were subsequently cultured in an atmosphere of 5% CO2 at 37° C. for 24 h. The cells were washed with PBS once, and 400 μl MTT agent was added in each well so as to react for 4 h. […] 200 μl supernatant was taken from the well and then added into a 96-well microplate, so as to measure the absorbance at 570 nm.
In the MTT assay, the umbilical vein endothelial cells (EAhy926 cell strain) was planted 80 percent full and cultured in a 1×HAT culture medium including 15% FBS-DMEM, 1% glutamine and 1% PSN (used for screening cells having the characteristic of cell fusion). […] The culture medium was replaced in 24 h before the experiment, and the number of cells was counted by a hemocytometer. […] The supernatant was taken and putted into a 96-well microplate, and then the absorbance was measured at a wavelength of 570 nm.

[2] = tested on: NF-κB in MDA-MB-231 cells; assay: NF-κB immunofluorescence staining; assay type: cell-based, human; conditions: MDA-MB-231, FIG. 7
Protocol: FIG. 7 illustrates photographs taken at a 200× field under a fluorescence microscope, where a primary antibody NF-κB was used and the cells were stained through the immunofluenrence staining method. In the immunofluenrence staining, the compound II in different concentrations were used to stimulate MDA-MB-231 cells, and a primary antibody NF-κB (with a dilution ratio of 1:250) was added, and then the cells were cultured at an atmosphere of 5% CO2 for 2 h at 37° C. Subsequently a fluorescence secondary antibody (with a dilution ratio of 1:200) was added, and finally DAPI (with a dilution ratio of 1:1000) was added. The cells were stored with protect from light at the room temperature for 5 min. The cells were observed under the fluorescence microscope and a photograph (200×) of the cells was taken. Finally, the cells were mounted with the mounting gel.

[3] = tested on: breast tumor cells MDA-MB-231; assay: transwell invasion assay; assay type: cell-based, human; conditions: 0.5, 1 and 2 μM, 20 h, with increasing concentration
Protocol: (§1) In the transwell invasion assay, the Matrigel which was a component of ECM was used to imitate the environment between cells. When the cells in a BD Matrigel™ Invasion Chamber were stimulated by growth factors in the Matrigel matrix, the cells secreted some matrix proteolytic enzymes to degrade the Matrigel, so as to facilitate invasion of cells. If the cells had strong invasion capability, the cells can be observed on the filter membrane after staining. In FIG. 15, 800 μl 10% FBS-DMEM was added into the transwell as a chemoattractant, and then 500 μl cells (1×10^5) were planted in the transwell. DMEM culture medium included no FBS and the compound II of 0.5, 1 and 2 μM. The breast tumor cells MDA-MB-231 were then cultured at an atmosphere of 5% CO2 in an incubator at 37° C. for 20 h. Subsequently the cells were stained with Giemsa for 15 min, and observed by taking photographs at a 200× field of an optical microscope. In the test each time each group was represented by a medium value of three repeat transwells. In FIGS. 16A, 16B and 17, the breast tumor cells MDA-MB-231 were replaced by the breast tumor cells MDA-MB-468, the breast tumor cells MDA-MB-435 and the human normal breast cells MCF-10A, respectively. Furthermore, in FIGS. 16A and 16B, the compound II was replaced by the compound I of 0.5, 1 and 2 μM and the compound I of 2.5, 5 and 7.5 μM. In FIG. 17, the compound II was replaced by compound I of 2 μM, TNF-α/TGF-β of 10 ng/ml, and compound I of 2 μM and TNF-α/TGF-β of 10 ng/ml. In the quantitative method of cell migration test, steps included randomly choosing 9 fields at the lower surface of the transwell membrane, counting the total cell number in each field; regarding the medium value of cell number in the 9 fields as an index of chemotaxis migration of breast tumor cells in each transwell, and each group of each test was represented by the medium value of 3 repeat transwells.

[4] = tested on: human normal breast cells MCF-10A stimulated by TNF-α/TGF-β; assay: F-actin immunofluorescence staining (cell morphology); assay type: cell-based; conditions: 2 μM with TNF-α/TGF-β 10 ng/ml, 24 h
Text: FIG. 5 illustrates photographs taken at a 200× field under a fluorescence microscope, where a primary antibody F-actin is used and the cells are stained through the immunofluenrence staining method. Specifically, the photographs noted as “Control” in the first column show the morphologies of the human normal breast cells MCF-10A without being treated with the compound I and TNF-α/TGF-β. The photographs noted as “TNF-αTGF-β” in the second column show the morphologies of the human normal breast cells MCF-10A treated with TNF-α/TGF-β wherein the concentrations of TNF-α and TGF-β were 10 ng/ml. The photographs noted as “Compound I (2 μM)” in the third column show the morphologies of the human normal breast cells MCF-10A treated with the compound I having a concentration of 2 μM. The photographs noted as “TNF-α/TGF-β Compound I (2 μM)” in the fourth column show the morphologies of the human normal breast cells MCF-10A treated with the compound I, TNF-α and 10 TGF-β for 24 h, wherein the concentrations of the compound I, TNF-α and 10 TGF-β were 2 μM, 10 ng/ml and 10 ng/ml, respectively.

[5] = tested on: breast tumor cells MDA-MB-435; assay: transwell invasion assay; assay type: cell-based, human; conditions: 2.5, 5 and 7.5 μM, with increasing concentration
Protocol: as §1

[6] = tested on: breast tumor cells MDA-MB-468; assay: transwell invasion assay; assay type: cell-based, human; conditions: 0.5, 1 and 2 μM, with increasing concentration
Protocol: as §1

Row | SMILES | cell viability ([1]; EAhy926, concentration above 10 μM, 10 ng/mL TNF-α/TGF stimulation, FIG. 18) | IC50 ([1]; Homo sapiens, EA.hy 926, viability, EAhy926 cell strain) [µM] | expression of NF-κB [2] | migration of breast tumor cells MDA-MB-231 (transwell) [3] | cell morphology (F-actin staining) [4] | migration of breast tumor cells MDA-MB-435 (transwell) [5] | migration of breast tumor cells MDA-MB-468 (transwell) [6]
1 | COC1=C(OC)C(=O)C(C)=C(C)C1=O [compound II] | significantly decreased | 35.1 | inhibit expression of NF-κB | significantly reduced | – | – | –
2 | COC1=C(OC)C(=O)C(C)=CC1=O [compound I] | – | – | – | – | still was epithelial-like | also significantly reduced | significantly reduced
